A value given as a limit tells only on which side of the number the result lay.

Data set [1] is described as follows: Solubility experiment in water.
Another data set concerns MDA-MB-231 cells. As to the kind of experiment: Cell cycle analysis (PI, flow cytometry). The settings on record: 48 h. It is filed as cell-based, Human. How it is done: Cell cycle assay was performed using the DNA Content Quantitation Assay (Solarbio, Beijing, China). […] Then, the fixed cells were incubated with RNase A solution at 37 °C for 30 min and stained with PI in the dark for 30 min at 4 °C. The red fluorescence was detected using a flow cytometer (BD FACSCalibur) at 488 nm and analyzed by FlowJo Software (Tree Star Inc, Ashland, OR, USA). The PTX-treated group was set as a positive control.
For orientation: In flow cytometry, cells or beads pass a laser one at a time.

The test system of another data set is MCF-7. The settings on record: SI = IC50 MCF 10A/IC50 MCF-7, 48 h.
Data set [2] relates to MDA-MB-231 xenograft breast tumor model. As to the kind of experiment: In vivo antitumor assay. The settings on record: medium dose 10.30 mg/kg (MPTX-TTHA), q3d, tail vein, 21 days.
Another data set is described as follows: physchem. The settings on record: water, thermodynamic from solid.
In the next data set the test system is 4T1. Briefly: cells. To be noted: Mus musculus, 4T1, 48 h.
Another data set relates to caspase-3. As to the kind of experiment: Caspase-3 activity assay in cell lysates. The data set is classed as cell-based, Human. To be noted: MDA-MB-231, 0.1 and 1 nM, 48 h. Here is the method:
The activity of caspase-3 was performed according to the manufacturer’s protocol of the Caspase-3 Activity Assay Kit (Beyotime, Shanghai, China). […] Then, the absorbance was measured at 405 nm using a Microplate Reader (Thermo 3001, Vantaa, Finland), and the protein concentration was obtained via Bradford assay. Data were normalized for the protein content of each supernatant and expressed as the relative value compared to the control. The PTX-treated group was used as a positive control.

A further data set concerns MDA-MB-231. The settings on record: SI = IC50 MCF 10A/IC50 MDA-MB-231, 48 h.

By solubility is commonly meant the concentration that dissolves in the medium under given conditions. Low values mean little dissolved substance, high ones much dissolved substance. For orientation: IC50 means the point on the concentration scale where inhibition reaches its midpoint. A high value points to weaker potency in that assay. For the compound `CC(=O)O[C@H]1C(=O)[C@@]2(C)[C@H]([C@H](OC(=O)c3ccccc3)[C@]3(O)C[C@H](OC(=O)[C@H](OC(=O)CN(CCN(CCN(CCN(CC(=O)O)CC(=O)O)CC(=O)O)CC(=O)O)CC(=O)O)[C@@H](NC(=O)c4ccccc4)c4ccccc4)C(C)=C1C3(C)C)[C@]1(OC(C)=O)CO[C@@H]1C[C@@H]2O` [PTX-TTHA, 3,6,9,12-Tetraazatetradecanedioic acid, 3,6,9,12-tetrakis(carboxymethyl)-1-[2-(benzoylamino)-1-[[[6,12b-bis(acetyloxy)-12-(benzoyloxy)-2a,3,4,4a,5,6,9,10,11,12,12a,12b-dodecahydro-4,11-dihydroxy-4a,8,13,13-tetramethyl-5-oxo-7,11-methano-1H-cyclodeca [3, 4]benz [1,2-b]oxet-9-yl]oxy]carbonyl]-2-phenylethyl] ester], the “appearance of sample in water (solubility by photograph)” value in data set [1] (diluted to 5 mg/mL by water) is recorded as “completely clear”. Moreover, the “water solubility, fold higher than that of paclitaxel” value in data set [1] (water) is recorded as “about 7140 fold”. Besides, the “cells in G2/M phase” value is listed as 23.06 ± 0.92% in the data set on MDA-MB-231 cells (0.1 nM, control 8.74 ± 0.60%) and 51.40% ± 0.45 in the data set on MDA-MB-231 cells (1 nM). In addition, the “selectivity index (SI)” value is 23.19 in the data set with MCF-7 and 28.97 in the data set with MDA-MB-231. Further, the tumor inhibition rate in data set [2] is ~70.51%. In addition, the solubility in the data set “physchem” was > 5000 µg/mL. The same compound registered an IC50 with 4T1 of 0.0172 ± 0.00196 µM. In the data set with caspase-3, the “caspase-3 activity compared with the control group” value is “significantly activated”.

The record behind these values is paper PMC10180349 (Molecules, 2023).
